Consider 23 compounds from patent publication US20130064913A1, “ANTI-INFLAMMATORY BOTANICAL PRODUCTS FOR THE TREATMENT OF METABOLIC SYNDROME AND DIABETES” (Metaproteomics, LLC, priority 2001, published 2013).

≈ marks a conversion by molar mass, not a printed value. Where two headings read alike, the source gives them in different places. Marks after values point to notes of the source that are not given here.

The test system of experiment [1] is insulin-resistant 3T3-L1 adipocytes. Description: Adiponectin secretion from insulin-resistant 3T3-L1 adipocytes. The class given is cell-based, murine. To be noted: for Adiponectin/IL-6: insulin-resistant model.
Description: For two days, the cells were allowed grow to reach confluence. […] Twenty-four hours later, the supernatant medium was sampled for adiponectin determination. […] The adiponectin secreted into the medium was quantified using the Mouse Adiponectin Quantikine® Immunoassay kit with no modifications (R&D Systems, Minneapolis, Minn.). […] Substituting {relative adiponectin secretion/[concentration]} for the independent variable v/[S] and {relative adiponectin secretion} for the dependant variable {v}, produced a relationship of the form y=mx+b. Maximum adiponectin secretion relative to the solvent control was estimated from the y-intercept, while the concentration of test material necessary for half maximal adiponectin secretion was computed from the negative value of the slope.
The subject of experiment [2] is 3T3-L1 adipocytes. Description: Lipogenesis (Oil Red O / BODIPY) in 3T3-L1 adipocytes. The class given is cell-based, murine. To be noted: hops compounds 10, 5, 4 or 2 μg/ml, spent hops 50 μg/ml (Example 19).
The test system of experiment [3] is PGE2 synthesis in LPS-stimulated RAW 264.7 cells. The experiment in a line: PGE2 inhibition in LPS-stimulated RAW 264.7 murine macrophages (Example 1). The settings on record: for IC50: Mus musculus, RAW264.7; for Relative Potency: category of anti-inflammatory activity based on IC50. The format is cell-based.
The test system of experiment [4] is LPS-treated 3T3-L1 adipocytes. The experiment in a line: Adiponectin secretion in LPS/3T3-L1 adipocytes. The class given is cell-based, murine. To be noted: 100 ng LPS/ml.
Experiment [5] relates to TNFα-treated 3T3-L1 adipocytes. The experiment in a line: IL-6 secretion from TNFα-treated 3T3-L1 adipocytes. The format is cell-based, murine. To be noted: Mus musculus, 10 ng TNFα/ml; for inhibition at 1 µg/mL: 1.0 μg/ml.
The test system of experiment [6] is NF-κB. The experiment in a line: NF-κB DNA binding of nuclear extracts (TransAM NF-κB kit) from LPS-stimulated RAW 264.7 cells. The format is cell-based, murine. To be noted: LPS 4 h; MgRIAA 55 and 14 μg/ml, parthenolide 80 μM, LY294002 25 μM. Here is the method: Nuclear extracts were prepared essentially as described by Dignam, et al [Nucl Acids Res 11:1475-1489, (1983)]. […] Cells were then scraped into a clean tube and processed through three cycles of freeze/thaw. The supernatant layer following centrifugation at 10,000×g for 5 min at 4° C. was the cytoplasmic fraction. […] The nuclear extract fraction was collected as the supernatant layer following centrifugation at 10,000×g for […] at 4° C. NF-kB DNA binding of the nuclear extracts was assessed using the TransAM NF-κB kit from Active Motif (Carlsbad, Calif.) as per manufacturer's instructions. […] Protein concentration was measured (Bio-Rad assay) and 10 μg of nuclear protein extracts were assayed in duplicate.

In experiment [7] the test system is COX-2 protein expression. The experiment in a line: COX-2 protein expression by Western blot in LPS-stimulated RAW 264.7 cells. The format is cell-based, murine. The settings on record: 20 hours LPS, versus DMSO solvent control. The method, then:
Densitometry was performed using Kodak®software.

Setting [8] is: arbitrary category of the median inhibitory concentration, read-out: Relative IC50.
[9] abbreviates: test material added 90 min before LPS, 18 h, read-out: IC50 (PGE2 inhibition).

In the case of `CC(C)CCC1=C(O)C(C(=O)C(C)C)=C(O)C(CCC(C)C)(CCC(C)C)C1=O` [Hexahydrocolupulone], the results for the Adiponectin/IL-6 in experiment [1] (25 μg/ml) and in experiment [1] (50 μg/ml) were 1.36# and 0.60#, respectively. Besides, the “concentration at which maximal adiponectin secretion was observed” value in experiment [1] (of the four doses tested) was found to be 12.5 µg/mL. The “adipogenic response, in words” value in experiment [2] was “failed to elicit a lipogenic response greater than the solvent controls”.

As to `COc1cc(/C=C/C(=O)CC(=O)/C=C/c2ccc(O)c(OC)c2)ccc1O` [Curcumin, curcumin], the IC50 in experiment [3] is 2 to 7 µg/mL (≈ 5.43 to 19 µM); in experiment [3] (setting [8]), 2 to 6 µg/mL (≈ 5.43 to 16.3 µM).

`O=c1cc(-c2ccc(O)c(O)c2)oc2cc(O)cc(O)c12` [Luteolin, luteolin]: the IC50 is 2 to 7 µg/mL (≈ 6.99 to 24.5 µM) in experiment [3], 2 to 6 µg/mL (≈ 6.99 to 21 µM) in experiment [3] (setting [8]) and 3.9 µg/mL (≈ 13.6 µM) in experiment [3] (setting [9]).

As to `O=c1c(O)c(-c2ccc(O)c(O)c2)oc2cc(O)cc(O)c12` [Quercetin], the values for the IC50 in experiment [3], in experiment [3] (setting [8]) and in experiment [3] (setting [9]) were 0.3 to 1.7 µg/mL (≈ 0.993 to 5.62 µM), 1 µg/mL (≈ 3.31 µM) and 0.82 µg/mL (≈ 2.71 µM), respectively. Further, in experiment [3], the “Relative Potency” value is reported as “high”.

Regarding `O=C1C[C@@H](c2ccc(O)cc2)Oc2cc(O)cc(O)c21` [Naringenin, naringenin], the IC50 in experiment [3], in experiment [3] (setting [8]) and in experiment [3] (setting [9]) was more than 12 µg/mL in each case.

In experiment [3], `Oc1ccc(C=Cc2cc(O)cc(O)c2)cc1` [Resveratrol, resveratrol] came in with an IC50 of 2 to 7 µg/mL (≈ 8.76 to 30.7 µM).

Consider `O=c1c(O)c(-c2ccc(O)cc2O)oc2cc(O)cc(O)c12` [Morin, morin], for which the IC50 in experiment [3], in experiment [3] (setting [8]) and in experiment [3] (setting [9]) was more than 12 µg/mL throughout.

`O=C(O)c1ccccc1O` [Salicylic acid, salicylic acid]: the “% Stimulation of adiponectin secretion (maximum)” value (from here on “% Stimulation”) in experiment [4] is given as “failed to induce adiponectin secretion”.

For `Cc1c(C)c2c(c(C)c1O)CCC(C)(COc1ccc(CC3SC(=O)NC3=O)cc1)O2` (centres unmarked) [Troglitazone], the inhibition at 1 µg/mL in experiment [5] was determined as 34%. Further, in experiment [4], the “Concentration at maximum stimulation of adiponectin secretion” value was 0.625 µg/mL.

Regarding `CC(C)Oc1ccc2c(=O)c(-c3ccccc3)coc2c1` [Ipriflavone, ipriflavone], the IC50 in experiment [3] is 2 to 7 µg/mL (≈ 7.13 to 25 µM); in experiment [3] (setting [8]) it was 2 to 6 µg/mL (≈ 7.13 to 21.4 µM); in experiment [3] (setting [9]), 6.3 µg/mL (≈ 22.5 µM).

For the compound `C=C1C(=O)O[C@H]2[C@H]1CC/C(C)=C/CC[C@@]1(C)O[C@@H]21` [Parthenolide], the “NF-κB DNA binding, in words” value in experiment [6] is on record as “significant reduction”. Further, the “reduction of COX-2 protein expression” value in experiment [7] was found to be 22.5%.

Consider `CC1(C)CC[C@]2(C(=O)O)CC[C@]3(C)C(=CC[C@@H]4[C@@]5(C)CC[C@H](O)C(C)(C)[C@@H]5CC[C@]43C)[C@@H]2C1` [Oleanolic acid, oleanolic acid], for which, in experiment [3] (setting [8]), the IC50 stood at 1 µg/mL (≈ 2.19 µM).

As for `O=c1c(O)c(-c2ccc(O)c(O)c2)oc2cc(O)ccc12` [Fisetin, fisetin], the IC50 in experiment [3], in experiment [3] (setting [8]) and in experiment [3] (setting [9]) was more than 12 µg/mL in each case.

With `O=c1c(-c2ccc(O)cc2)coc2cc(O)cc(O)c12` [Genistein, genistein], the IC50 in experiment [3] is 0.3 to 1.7 µg/mL (≈ 1.11 to 6.29 µM); in experiment [3] (setting [8]), 1 µg/mL (≈ 3.7 µM); in experiment [3] (setting [9]), 1.7 µg/mL (≈ 6.29 µM). Also, the “Relative Potency” value in experiment [3] was “high”.

In experiment [5], `CN(C)C(=N)N=C(N)N` [Metformin] displayed an inhibition at 1 µg/mL of 9%. For the same compound, the inhibition at 5 µg/mL in experiment [5] (5.0 μg/ml) worked out at 4%. In experiment [5] (10 μg/ml), this compound returned an inhibition at 10 µg/mL of 22%. Further, the inhibition at 50 µg/mL in experiment [5] (50 μg/ml) worked out at 22%.

`COc1ccc2c(c1)c(CC(=O)O)c(C)n2C(=O)c1ccc(Cl)cc1` [Indomethacin, indomethacin]: the “% Stimulation” value in experiment [4] was found to be 9%.

Consider `CCc1ccc(CCOc2ccc(CC3SC(=O)NC3=O)cc2)nc1` (centres unmarked) [Pioglitazone], for which, in experiment [4] (relative to LPS control), the “Adiponectin Index (maximum stimulation)” value was 1.12*.

Take `CC(=O)Oc1ccccc1C(=O)O` [Aspirin]: in experiment [4], the “% Stimulation” value is given as “failed to induce adiponectin secretion”.

As for `O=c1cc(-c2ccc(O)cc2)oc2cc(O)cc(O)c12` [Apigenin, apigenin], the IC50 in experiment [3] was 2 to 7 µg/mL (≈ 7.4 to 25.9 µM); in experiment [3] (setting [8]) it was 2 to 6 µg/mL (≈ 7.4 to 22.2 µM); in experiment [3] (setting [9]) it was 2.8 µg/mL (≈ 10.4 µM).

With `Cc1ccc(-c2cc(C(F)(F)F)nn2-c2ccc(S(N)(=O)=O)cc2)cc1` [Celecoxib, celecoxib], the “% Stimulation” value in experiment [4] is recorded as “failed to induce adiponectin secretion”.

Consider `COc1ccc2cc3[n+](cc2c1OC)CCc1cc2c(cc1-3)OCO2` [Berberine], for which the IC50 in experiment [3] lay in the range of 2 to 7 µg/mL.

With `O=c1cc(N2CCOCC2)oc2c(-c3ccccc3)cccc12` [LY294002], the “NF-κB DNA binding, in words” value in experiment [6] is “modest decrease”.

For the compound `O=c1c(O)c(-c2ccccc2)oc2cc(O)cc(O)c12` [Galangin, galangin], the IC50 is 0.3 to 1.7 µg/mL (≈ 1.11 to 6.29 µM) in experiment [3], 1 µg/mL (≈ 3.7 µM) in experiment [3] (setting [8]) and 1.4 µg/mL (≈ 5.18 µM) in experiment [3] (setting [9]). In addition, in experiment [3], the “Relative Potency” value is on record as “high”.
